pKd: −log10 of the molar value.
Molecular target: T1, Serine-rich adhesin for platelets (SraP), L-Lectin module (Staphylococcus aureus, UniProt Q8NUJ3)
T1 construct: SraP L-Lectin domain (L-Lectin of MW2)
Assay: SPR (Biacore T200, protein amine-coupled on CM5 chip, kinetic fit)
Type: binding

T1 sequence (Q8NUJ3 245-480): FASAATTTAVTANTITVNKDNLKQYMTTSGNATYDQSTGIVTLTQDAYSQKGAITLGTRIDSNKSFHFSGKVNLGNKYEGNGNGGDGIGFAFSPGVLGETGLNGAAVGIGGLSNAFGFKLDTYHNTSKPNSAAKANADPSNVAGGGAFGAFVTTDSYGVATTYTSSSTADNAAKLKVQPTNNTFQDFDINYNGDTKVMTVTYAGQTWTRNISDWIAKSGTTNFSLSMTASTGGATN

For `O=C(O[C@@H]1Cc2c(O)cc(O)cc2O[C@@H]1c1cc(O)c(O)c(O)c1)c1cc(O)c(O)c(O)c1` [EGCG], the pKd was 5.40.

Source: PMC12844705, “Multitarget Mechanisms of (‒)‒Epigallocatechin-3-Gallate Against MRSA: From SraP L-Lectin Targeting to Synergistic Antibiotic Effects” (Pathogens, 2026)
